# Reference: publication PMC12216609, “Inhibitors of eIF1A-ribosome interaction unveil uORF-dependent regulation of translation initiation and antitumor and antiviral effects” (The EMBO Journal, 2025)
# Several values for one entry are separate records, joined by “and”; a condition that tells them apart may be missing. Equal entries are not always repeated.
# Molecular target: NSP1 (Severe acute respiratory syndrome coronavirus 2, UniProt P0DTD1)
# Test: not given
# Conditions: not given
SMILES,"GFP reporter ratio nsp1/gfp, avg","GFP reporter ratio nsp1/gfp, rep 1","gfp signal, mean of duplicate wells","nsp1 signal, mean of duplicate wells",ratio (nsp1/gfp),"GFP reporter ratio nsp1/gfp, rep 2"
Cc1cc(-n2c(C)cc(-c3csc(N)n3)c2C)no1 [1Ai-6464],0.5623,0.5623,2104,1183,0.562,–
COc1cccc(Nc2nc(-c3ccc(NC(C)=O)cc3)c(C)s2)c1 [1Ai-1869],0.4109,0.4212,–,–,0.421 and 0.401 and 0.735,0.4006

# Molecular target: T1, eIF1A without CTT (Homo sapiens, UniProt P47813)
# T1 construct: His-bdSUMO (cleaved yes); made in house; host or cells: E. coli (BL-21)
# Test: not given
# Type: binding
# Conditions: 1Ai conc. 0.25 uM; background-corrected, relative to DMSO or lowest 1Ai concentration; replicate columns
# T1 sequence (P47813 1-114 limits assumed): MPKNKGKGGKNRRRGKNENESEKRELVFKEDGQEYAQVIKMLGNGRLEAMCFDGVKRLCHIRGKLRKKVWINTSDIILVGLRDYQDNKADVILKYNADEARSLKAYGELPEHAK
row,SMILES,"fluorescence ratio, eIF1A Δ CTT"
1,Cc1cc(-n2c(C)cc(-c3csc(N)n3)c2C)no1 [1Ai-6464],0.827 and 0.948
2,COc1cccc(Nc2nc(-c3ccc(NC(C)=O)cc3)c(C)s2)c1 [1Ai-1869],0.6232 and 0.681

# Same assay, conditions: 1Ai conc. 0.5 uM; background-corrected, relative to DMSO or lowest 1Ai concentration; replicate columns
row,SMILES,"fluorescence ratio, eIF1A Δ CTT"
1,Cc1cc(-n2c(C)cc(-c3csc(N)n3)c2C)no1 [1Ai-6464],0.8882 and 1.055
2,COc1cccc(Nc2nc(-c3ccc(NC(C)=O)cc3)c(C)s2)c1 [1Ai-1869],0.6378 and 0.5984

# Same assay, conditions: 1Ai conc. 1 uM; background-corrected, relative to DMSO or lowest 1Ai concentration; replicate columns
row,SMILES,"fluorescence ratio, eIF1A Δ CTT"
1,Cc1cc(-n2c(C)cc(-c3csc(N)n3)c2C)no1 [1Ai-6464],0.8515 and 1.0065
2,COc1cccc(Nc2nc(-c3ccc(NC(C)=O)cc3)c(C)s2)c1 [1Ai-1869],0.6117 and 0.6127

# Same assay, conditions: 1Ai conc. 2 uM; background-corrected, relative to DMSO or lowest 1Ai concentration; replicate columns
row,SMILES,"fluorescence ratio, eIF1A Δ CTT"
1,Cc1cc(-n2c(C)cc(-c3csc(N)n3)c2C)no1 [1Ai-6464],0.8637 and 0.9317
2,COc1cccc(Nc2nc(-c3ccc(NC(C)=O)cc3)c(C)s2)c1 [1Ai-1869],0.4666 and 0.4698

# Same assay, conditions: 1Ai conc. 4 uM; background-corrected, relative to DMSO or lowest 1Ai concentration; replicate columns
row,SMILES,"fluorescence ratio, eIF1A Δ CTT"
1,Cc1cc(-n2c(C)cc(-c3csc(N)n3)c2C)no1 [1Ai-6464],0.8683 and 0.9724
2,COc1cccc(Nc2nc(-c3ccc(NC(C)=O)cc3)c(C)s2)c1 [1Ai-1869],0.4763 and 0.4603

# Same assay, conditions: 1Ai conc. 8 uM; background-corrected, relative to DMSO or lowest 1Ai concentration; replicate columns
row,SMILES,"fluorescence ratio, eIF1A Δ CTT"
1,Cc1cc(-n2c(C)cc(-c3csc(N)n3)c2C)no1 [1Ai-6464],0.6692 and 0.7821
2,COc1cccc(Nc2nc(-c3ccc(NC(C)=O)cc3)c(C)s2)c1 [1Ai-1869],0.4568 and 0.3937

# Same assay, conditions: 1Ai conc. 16 uM; background-corrected, relative to DMSO or lowest 1Ai concentration; replicate columns
row,SMILES,"fluorescence ratio, eIF1A Δ CTT"
1,Cc1cc(-n2c(C)cc(-c3csc(N)n3)c2C)no1 [1Ai-6464],0.7305 and 0.6862
2,COc1cccc(Nc2nc(-c3ccc(NC(C)=O)cc3)c(C)s2)c1 [1Ai-1869],0.3246 and 0.3079

# Same assay, conditions: 1Ai conc. 32 uM; background-corrected, relative to DMSO or lowest 1Ai concentration; replicate columns
row,SMILES,"fluorescence ratio, eIF1A Δ CTT"
1,Cc1cc(-n2c(C)cc(-c3csc(N)n3)c2C)no1 [1Ai-6464],0.608 and 0.5594
2,COc1cccc(Nc2nc(-c3ccc(NC(C)=O)cc3)c(C)s2)c1 [1Ai-1869],0.1925 and 0.219

# Same assay, conditions: 1Ai conc. 64 uM; background-corrected, relative to DMSO or lowest 1Ai concentration; replicate columns
row,SMILES,"fluorescence ratio, eIF1A Δ CTT"
1,Cc1cc(-n2c(C)cc(-c3csc(N)n3)c2C)no1 [1Ai-6464],0.4364 and 0.4829
2,COc1cccc(Nc2nc(-c3ccc(NC(C)=O)cc3)c(C)s2)c1 [1Ai-1869],0.1778 and 0.2

# Same assay, conditions: 1Ai conc. 256 uM; background-corrected, relative to DMSO or lowest 1Ai concentration; replicate columns
row,SMILES,"fluorescence ratio, eIF1A Δ CTT"
1,Cc1cc(-n2c(C)cc(-c3csc(N)n3)c2C)no1 [1Ai-6464],0.1547 and 0.1772
2,COc1cccc(Nc2nc(-c3ccc(NC(C)=O)cc3)c(C)s2)c1 [1Ai-1869],0.2104 and 0.2095

# Same assay, conditions: eIF1A Δ CTT; from the titration data; read-out: IC50 (eIF1A Δ CTT titration block)
row,SMILES,IC50 [µM]
1,Cc1cc(-n2c(C)cc(-c3csc(N)n3)c2C)no1 [1Ai-6464],35.4
2,COc1cccc(Nc2nc(-c3ccc(NC(C)=O)cc3)c(C)s2)c1 [1Ai-1869],5.75

# Same assay, conditions: summary table; fluorescence binding assay; read-out: IC50 concentration (µM), CTT truncation
row,SMILES,IC50 [µM]
1,Cc1cc(-n2c(C)cc(-c3csc(N)n3)c2C)no1 [1Ai-6464],35.4
2,COc1cccc(Nc2nc(-c3ccc(NC(C)=O)cc3)c(C)s2)c1 [1Ai-1869],5.7

# Molecular target: T2, eIF1A-RPS10 interaction (Homo sapiens, UniProt P46783+P47813)
# T2 construct: made in house; host or cells: E. coli BL21 (PRSFduet); unpurified lysate supernatant
# Test: Split-Renilla luciferase eIF1A-RPS10 interaction screen, dose-response
# Type: biochemical
# Conditions: Appendix Table S1; read-out: IC50 from the split RL screen
# Summary of the method: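 Reconstituted Renilla luciferase activity reports eIF1A-RPS10 binding; loss indicates disruption by compound. Recombinant fusions (eIF1A C-terminus to N-RL; RPS10-ΔN-Renilla) expressed in E. coli BL21, used as sonicated supernatants in Tris/KCl/EDTA buffer, with unfused split-RL halves as controls.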
# T2 sequence (P47813 whole entry, one chain of several): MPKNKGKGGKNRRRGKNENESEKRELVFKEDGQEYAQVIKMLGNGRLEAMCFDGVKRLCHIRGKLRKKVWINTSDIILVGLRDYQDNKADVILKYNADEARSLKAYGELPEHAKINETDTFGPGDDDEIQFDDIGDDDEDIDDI
row,SMILES,IC50 [µM]
1,COc1cccc(Nc2nc(-c3ccc(NC(C)=O)cc3)c(C)s2)c1 [1Ai-1869],18

# Same assay, conditions: summary table; read-out: IC50 concentration (µM), IC50 screen
row,SMILES,IC50 [µM]
1,Cc1cc(-n2c(C)cc(-c3csc(N)n3)c2C)no1 [1Ai-6464],13
2,COc1cccc(Nc2nc(-c3ccc(NC(C)=O)cc3)c(C)s2)c1 [1Ai-1869],14

# Molecular target: T3, eIF1A without NTT (Homo sapiens, UniProt P47813)
# T3 construct: His-bdSUMO (cleaved yes); made in house; host or cells: E. coli (BL-21)
# Test: Fluorescence binding assay with NTT-truncated eIF1A
# Conditions: 1Ai conc. 0.25 uM; background-corrected, relative to DMSO or lowest 1Ai concentration; replicate columns
# T3 sequence (P47813 31-144 limits assumed): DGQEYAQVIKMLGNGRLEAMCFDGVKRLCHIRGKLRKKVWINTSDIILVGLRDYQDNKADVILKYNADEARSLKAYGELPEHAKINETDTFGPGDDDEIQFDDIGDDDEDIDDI
row,SMILES,"fluorescence ratio, eIF1A Δ NTT"
1,Cc1cc(-n2c(C)cc(-c3csc(N)n3)c2C)no1 [1Ai-6464],0.925 and 0.9309
2,COc1cccc(Nc2nc(-c3ccc(NC(C)=O)cc3)c(C)s2)c1 [1Ai-1869],1

# Same assay, conditions: 1Ai conc. 0.5 uM; background-corrected, relative to DMSO or lowest 1Ai concentration; replicate columns
row,SMILES,"fluorescence ratio, eIF1A Δ NTT"
1,Cc1cc(-n2c(C)cc(-c3csc(N)n3)c2C)no1 [1Ai-6464],1.072 and 0.9557
2,COc1cccc(Nc2nc(-c3ccc(NC(C)=O)cc3)c(C)s2)c1 [1Ai-1869],0.9867

# Same assay, conditions: 1Ai conc. 1 uM; background-corrected, relative to DMSO or lowest 1Ai concentration; replicate columns
row,SMILES,"fluorescence ratio, eIF1A Δ NTT"
1,Cc1cc(-n2c(C)cc(-c3csc(N)n3)c2C)no1 [1Ai-6464],1.214 and 0.9982
2,COc1cccc(Nc2nc(-c3ccc(NC(C)=O)cc3)c(C)s2)c1 [1Ai-1869],1.085

# Same assay, conditions: 1Ai conc. 2 uM; background-corrected, relative to DMSO or lowest 1Ai concentration; replicate columns
row,SMILES,"fluorescence ratio, eIF1A Δ NTT"
1,Cc1cc(-n2c(C)cc(-c3csc(N)n3)c2C)no1 [1Ai-6464],1.067 and 1.004
2,COc1cccc(Nc2nc(-c3ccc(NC(C)=O)cc3)c(C)s2)c1 [1Ai-1869],0.9841

# Same assay, conditions: 1Ai conc. 4 uM; background-corrected, relative to DMSO or lowest 1Ai concentration; replicate columns
row,SMILES,"fluorescence ratio, eIF1A Δ NTT"
1,Cc1cc(-n2c(C)cc(-c3csc(N)n3)c2C)no1 [1Ai-6464],1.128 and 0.9504
2,COc1cccc(Nc2nc(-c3ccc(NC(C)=O)cc3)c(C)s2)c1 [1Ai-1869],0.9947

# Same assay, conditions: 1Ai conc. 8 uM; background-corrected, relative to DMSO or lowest 1Ai concentration; replicate columns
row,SMILES,"fluorescence ratio, eIF1A Δ NTT"
1,Cc1cc(-n2c(C)cc(-c3csc(N)n3)c2C)no1 [1Ai-6464],1.103 and 0.7642
2,COc1cccc(Nc2nc(-c3ccc(NC(C)=O)cc3)c(C)s2)c1 [1Ai-1869],0.9125

# Same assay, conditions: 1Ai conc. 16 uM; background-corrected, relative to DMSO or lowest 1Ai concentration; replicate columns
row,SMILES,"fluorescence ratio, eIF1A Δ NTT"
1,Cc1cc(-n2c(C)cc(-c3csc(N)n3)c2C)no1 [1Ai-6464],0.8611 and 0.7181
2,COc1cccc(Nc2nc(-c3ccc(NC(C)=O)cc3)c(C)s2)c1 [1Ai-1869],0.8674

# Same assay, conditions: 1Ai conc. 32 uM; background-corrected, relative to DMSO or lowest 1Ai concentration; replicate columns
row,SMILES,"fluorescence ratio, eIF1A Δ NTT"
1,Cc1cc(-n2c(C)cc(-c3csc(N)n3)c2C)no1 [1Ai-6464],0.7861 and 0.6206
2,COc1cccc(Nc2nc(-c3ccc(NC(C)=O)cc3)c(C)s2)c1 [1Ai-1869],0.7984

# Same assay, conditions: 1Ai conc. 64 uM; background-corrected, relative to DMSO or lowest 1Ai concentration; replicate columns
row,SMILES,"fluorescence ratio, eIF1A Δ NTT"
1,Cc1cc(-n2c(C)cc(-c3csc(N)n3)c2C)no1 [1Ai-6464],0.6389 and 0.5018
2,COc1cccc(Nc2nc(-c3ccc(NC(C)=O)cc3)c(C)s2)c1 [1Ai-1869],0.7082

# Same assay, conditions: 1Ai conc. 256 uM; background-corrected, relative to DMSO or lowest 1Ai concentration; replicate columns
row,SMILES,"fluorescence ratio, eIF1A Δ NTT"
1,Cc1cc(-n2c(C)cc(-c3csc(N)n3)c2C)no1 [1Ai-6464],0.4333 and 0.2642
2,COc1cccc(Nc2nc(-c3ccc(NC(C)=O)cc3)c(C)s2)c1 [1Ai-1869],0.6737

# Same assay, conditions: eIF1A Δ NTT; from the titration data; read-out: IC50 (eIF1A Δ NTT titration block)
row,SMILES,IC50 [µM]
1,Cc1cc(-n2c(C)cc(-c3csc(N)n3)c2C)no1 [1Ai-6464],37
2,COc1cccc(Nc2nc(-c3ccc(NC(C)=O)cc3)c(C)s2)c1 [1Ai-1869],21.3

# Same assay, conditions: summary table; fluorescence binding assay; read-out: IC50 concentration (µM), NTT truncation
row,SMILES,IC50 [µM]
1,Cc1cc(-n2c(C)cc(-c3csc(N)n3)c2C)no1 [1Ai-6464],37
2,COc1cccc(Nc2nc(-c3ccc(NC(C)=O)cc3)c(C)s2)c1 [1Ai-1869],21.3
